We go through 2 compounds from US9193699B2, “Apoptosis inducing compounds” (INSTITUT NATIONAL DE LA SANTE ET DE LA RECHERCHE MEDICALE …, priority 2011, dated 2015).

In assay [1] the test system is Human breast tumor L226 cells. Put plainly: Inhibition of tumor cell growth (alamar blue), L226. It counts as cell-based. Particulars: 120 h, calculated on the basis of cell growth inhibition, day 5, alamar blue. As for the experimental part:
(§1) All biological experiments (Examples 2 to 9) have been performed with recommended cell line specific culture medium. For SUM149 and L226, culture medium is supplemented with 10% Fetal Calf Serum. For HME-1 and MCF-10A, culture medium is supplemented with 5% Horse Serum.
Human breast tumor L226 cells (Inflammatory Breast Cancer (IBC) of ERB-B2 subtype) were plated in a 96 well plate at 3000 cells/100 μL at 37° C. in 5% CO2. Serial dilutions of drugs (compounds 1, 3 or 4) ranging from 20 μM to 300 nM were added at day 0 and day 3. The number of viable cells was determined in triplicate at day 5 by incubating 10 μL of the alamar blue staining solution for 2 hours at 37° C. (FIG. 3).
IC50 values of compounds 1-14 for the inhibition of SUM149 and L226 tumor cells growth were measured (according to the experimental procedure of Examples 2 and 3): […]

In assay [2] the test system is Human normal mammary epithelial HME-1 cells. Put plainly: Effect on growth of normal cells (alamar blue), HME-1. It counts as cell-based. As to conditions: HME1, calculated on the basis of cell growth inhibition. The procedure: as §1
Human normal mammary epithelial HME-1 cells were plated in a 96 well plate at 3000 cells/100 μL at 37° C. in 5% CO2. Serial dilutions of drugs (compounds 1, 3 or 4) ranging from 20 μM to 300 nM were added at day 0 and day 3. The number of viable cells was determined in triplicate at day 5 by incubating 10 μL of the alamar blue staining solution for 2 hours at 37° C. (FIG. 4).
(§2) IC50 values of compounds 1-14 for the inhibition of MCF-10A and HME-1 normal cells growth were also measured (according to the experimental procedure of Examples 4 and 5): […]

For assay [3], the system named is caspase-3 and caspase-7 in L226 cells. Put plainly: Caspase 3/7 activation (Caspase-Glo 3/7) in L226 tumor cells. It counts as cell-based. Particulars: Homo sapiens, R=RLU at 20 μM/RLU at 0 μM, 24 h, read-out: Caspase 3/7 activation R (RLU fold increase from untreated cells). The procedure:
Human breast tumor L226 cells were plated in a 96 well plate at 10000 cells/100 μL at 37° C. in 5% CO2. Serial dilutions of drugs (compounds 1, 3 or 4) ranging from 20 μM to 300 nM were added at day 0. Active caspase-3 and caspase-7 were measured in triplicate after 24 h treatment by incubating 50 μL of the Caspase-Glo 3/7 reagent for 60 min at 25° C. This reagent containing the proluminescent tetrapeptide sequence DEVD in a cell lysis buffer (Promega) (FIG. 7).
(§3) Caspase 3/7 activation in SUM149 and L226 tumor cells was measured.
(§4) The calculated values R correspond to Relative Luminescence Units (RLU) fold increase from untreated cells (R=RLU at 20 μM/RLU at 0 μM).

The test system of assay [4] is tumors derived from MMTC-ErbB2/neu mice. Put plainly: TUNEL assay of tumor apoptosis in MMTV-ErB2/Neu mice. It counts as in vivo. As to conditions: 100 mg/kg for 30 days. The procedure: DNA fragmentation in apoptotic cells was analyzed by the TUNEL assay (ApopTag detection kit, Millipore) as recommended by the manufacturer.
Briefly, 4 μm sections of paraffin-embedded fixed tissue from tumors derived from MMTC-ErbB2/neu mice treated with vehicle or with Compound 12, 4 or 8 (100 mg/kg) for 30 days, were deparaffined with successive histolemon and ethanol washes, then treated with 20 μg/mL proteinase K for 15 min at room temperature. Endogenous peroxidise was quenched with 3% hydrogen peroxide. […] Coloration was performed using the diaminobenzidine mixed substrate (Dako). Counterstaining was done with a solution of 1% methyl green for 5 min at room temperature. After distilled water and N-butanol washes, specimens were mounted in Pertex medium (CellPath). Observations were made using the Leica DMD108 digital microimaging device (Leica Microsystems GmbH).

Assay [5] deals with Human normal mammary epithelial MCF-10A cells. Put plainly: Effect on growth of normal cells (alamar blue), MCF-10A. It counts as cell-based. As to conditions: calculated on the basis of cell growth inhibition. The procedure: as §1
Human normal mammary epithelial MCF-10A cells were plated in a 96 well plate at 3000 cells/100 μL at 37° C. in 5% CO2. Serial dilutions of drugs (compounds 1, 3 or 4) ranging from 20 μM to 300 nM were added at day 0 and day 3. The number of viable cells was determined in triplicate at day 5 by incubating 10 μL of the alamar blue staining solution for 2 hours at 37° C. (FIG. 5).
as §2

Assay [6] deals with Human breast tumor SUM149 cells. Put plainly: Inhibition of tumor cell growth (alamar blue), SUM149. It counts as cell-based. Particulars: 120 h, calculated on the basis of cell growth inhibition, day 5, alamar blue, read-out: IC50 for the inhibition of SUM149 tumor cells growth. As for the experimental part: as §1
Human breast tumor SUM149 cells (Inflammatory Breast Cancer (IBC) of basal subtype) were plated in a 96 well plate at 3000 cells/100 μL at 37° C. in 5% CO2. Compounds 1, 3, 4, 5, 6, 7, 8, 9, 10, 11, 12, 13, 14 at 10 μM were added at day 0 and day 3. The number of viable cells was determined in triplicate at day 5 by incubating 10 μL of the alamar blue staining solution for 2 hours at 37° C. (FIG. 1).
Human breast tumor SUM149 cells were plated in a 96 well plate at 3000 cells/100 μL at 37° C. in 5% CO2. Serial dilutions of drugs (compounds 1, 3 or 4) ranging from 20 μM to 300 nM were added at day 0 and day 3. The number of viable cells was determined in triplicate at day 5 by incubating 10 μL of the alamar blue staining solution for 2 hours at 37° C. (FIG. 2).
IC50 values of compounds 1-14 for the inhibition of SUM149 and L226 tumor cells growth were measured (according to the experimental procedure of Examples 2 and 3):
Human breast tumor SUM149 cells were plated in a 96 well plate at 3000 cells/100 μL at 37° C. in 5% CO2 in recommended medium containing 10% FCS or in synthetic medium without FCS. Serial dilutions of drug (compound 4) ranging from 10 μM to 0.16 μM were added at day 0 and day 3. The number of viable cells was determined in triplicate at day 5 by incubating 10 μL of the alamar blue staining solution for 2 hours at 37° C. (FIG. 11). The […] in recommended medium containing 10% FCS was measured at 2 μM, while it was measured at 0.6 μM without FCS.

The subject of assay [7] is caspase-3 and caspase-7 in SUM149 cells. Put plainly: Caspase 3/7 activation (Caspase-Glo 3/7) in SUM149 tumor cells. It counts as cell-based. As to conditions: Homo sapiens, R=RLU at 20 μM/RLU at 0 μM, 24 h, read-out: Caspase 3/7 activation R (RLU fold increase from untreated cells). The procedure: Human breast tumor SUM149 cells were plated in a 96 well plate at 10000 cells/100 μL at 37° C. in 5% CO2. Serial dilutions of drugs (compounds 1, 3 or 4) ranging from 20 μM to 300 nM were added at day 0. Active caspase-3 and caspase-7 were measured in triplicate after 24 h treatment by incubating 50 μL of the Caspase-Glo 3/7 reagent for 60 min at 25° C. This reagent containing the proluminescent tetrapeptide sequence DEVD in a cell lysis buffer (Promega) (FIG. 6).
as §3, §4

In assay [8] the test system is caspase-3 and caspase-7 in MCF-10A cells. Put plainly: Caspase 3/7 activation (Caspase-Glo 3/7) in MCF-10A normal cells. As to conditions: Homo sapiens, R=RLU at 20 μM/RLU at 0 μM, 24 h, read-out: Caspase 3/7 activation R (RLU fold increase from untreated cells). It counts as cell-based. The procedure: Human normal mammary epithelial MCF-10A cells were plated in a 96 well plate at 10000 cells/100 μL at 37° C. in 5% CO2. Serial dilutions of drugs (compounds 1, 3 or 4) ranging from 20 μM to 300 nM were added at day 0. Active caspase-3 and caspase-7 were measured in triplicate after 24 h treatment by incubating 50 μL of the Caspase-Glo 3/7 reagent for 60 min at 25° C. This reagent containing the proluminescent tetrapeptide sequence DEVD in a cell lysis buffer (Promega) (FIG. 9).
as §4
(§5) Caspase 3/7 activation in MCF-10A and HME-1 normal cells was also measured.

The subject of assay [9] is Human breast tumor SUM149 cells. Put plainly: Annexin V/7-AAD apoptosis with or without Z-VAD-FMK. It counts as cell-based. Particulars: 2.5 to 20 μM, 48 h, with Z-VAD-FMK pan-caspases inhibitor. As for the experimental part:
Human breast tumor SUM149 cells were plated in dishes at a concentration of 10^6 cells/[…] Cells were treated with compound 3 or compound 4 (2.5 to 20 μM) for 48 h, with or without Z-VAD-FMK, a pan-caspases inhibitor. Cells were double stained with annexinV-FITC and 7-AAD to measure cell apoptosis.

The test system of assay [10] is caspase-3 and caspase-7 in HME-1 cells. The assay is described as follows: Caspase 3/7 activation (Caspase-Glo 3/7) in HME-1 normal cells. It counts as cell-based. Particulars: Homo sapiens, HME1, R=RLU at 20 μM/RLU at 0 μM, 24 h, read-out: Caspase 3/7 activation R (RLU fold increase from untreated cells). The procedure:
Human normal mammary epithelial HME-1 cells were plated in a 96 well plate at 10000 cells/100 μL at 37° C. in 5% CO2. Serial dilutions of drugs (compounds 1, 3 or 4) ranging from 20 μM to 300 nM were added at day 0. Active caspase-3 and caspase-7 were measured in triplicate after 24 h treatment by incubating 50 μL of the Caspase-Glo 3/7 reagent for 60 min at 25° C. This reagent containing the proluminescent tetrapeptide sequence DEVD in a cell lysis buffer (Promega) (FIG. 8).
as §4, §5

Where only a bound is given, the exact number is not on record here.

As a reminder, the IC50 is the concentration at which inhibition is half-maximal. For `CCc1ccc(S(=O)(=O)N2CCSC(C)(C)[C@@H]2C(=O)NO)cc1` [Compound 8, (3S)—N-hydroxy-4-[(4-ethylphenyl)sulfonyl]-2,2-dimethyl-3-thiomorpholine carboxamide], the IC50 was 5 µM in assay [1], over 20 µM in assay [2], over 20 µM in assay [5] and 7.5 µM in [6]. For the same compound, the fold induction at 20 µM was determined as 2.3 in assay [3] and 5.7 in assay [7]. For the same compound, the “percentage of cells having TdT positive nuclei in tumors” value in [4] was “rare”.
For `CC(C)c1ccc(S(=O)(=O)N2CCSC(C)(C)[C@@H]2C(=O)NO)cc1` [Compound 3, (3S)—N-hydroxy-4-[(4-isopropylphenyl)sulfonyl]-2,2-dimethyl-3-thiomorpholine carboxamide], the IC50 in [1] was 2.5 µM; in [2], over 20 µM; in assay [5] it was over 20 µM; in [6], 2.5 µM. Further, the fold induction at 20 µM in assay [8] is 1; in assay [3], 2.1; in [7], 6.3; in assay [10], 1. The “effect of Z-VAD treatment on compound induced apoptosis (Annexin V positive cells)” value in assay [9] is listed as “fully impaired”.
